Measurements: paper PMC7051184, “C9orf72 arginine-rich dipeptide repeat proteins disrupt karyopherin-mediated nuclear import” (eLife, 2020)
Where a SMILES comes first, the peptide text is derived from it.

What was measured:
[1] = Bead halo assay, bare neutravidin beads (non-specific control); details: AF488-labeled, 200 nM, binding buffer
Method: (§1) The bead halo assay was carried out as described with minor modifications ([Patel and Rexach, 2008]), using […] polystyrene beads coated with neutravidin (for biotinylated proteins) or glutathione (for GST-fusion proteins) (Spherotech, Lake Forest, IL). Beads were coated overnight at 4°C at saturating concentrations per manufacturers’ instructions and rinsed 2x in binding buffer (20 mM HEPES [pH 7.4], 150 mM KOAc, 2 mM Mg(OAc)2, 1 mM DTT, 0.1% Tween-20). Immediately prior to the assay, fluorescent bait proteins and beads were combined with 4x assay buffer (40 mM EDTA, 40 mg/ml BSA, 500 mM NaCl, and 0.2% Tween) to a total of 40 µL per well, in optical glass-bottom 96-well plates (Cellvis, Mountain View, CA). Reactions were allowed to equilibrate at room temperature for a minimum of 30 min prior to imaging at 100x on an LSM800 confocal microscope (Zeiss, Oberkochen, Germany). Intensity profiles comparing the maximum rim intensity to the background were plotted in ImageJ (NIH) by an investigator blinded to experimental conditions.

Nup100(1-307) = format: binding, S. cerevisiae; details: AF488-labeled
Method: (§2) The expression of GST- Nsp1(497-609) in BL21(DE3) cells grown in LB media was induced at OD600nm = 0.4–0.6, followed by incubation at 37°C for 3–5 hr. The GST-tagged S. cerevisiae pGEX-Nup100(1-307), Nup100(1-610), Nup116(348-458) and Nup116(348-458)F > A were expressed in T7 Shuffle cells (NEB) that were grown in Dynamite media ([Taylor et al., 2017]) until OD600nm = 0.9 before induction with IPTG at 37°C for 3 hr. All the GST-tagged Nup fragments were purified using glutathione-sepharose affinity chromatography, as described for the GST-GFP-NLS above, and dialyzed into PBS before storage.
as §1

Nup100(1-610) = format: binding, S. cerevisiae; details: AF488-labeled
Method: as §2, §1

Nup133 = test: DPR aggregation assay and western blot, Nup133; format: biochemical, human; details: 100 µM 10mer in 2.5 mg/ml HEK lysate, normalized to untreated HEK
Method: (§3) Supernatant and pellet fractions (for all 5 DPRs, and control/buffer only) were prepared as in the nuclear transport assays, by adding 100 µM 10mers to 2.5 mg/ml HEK lysate in 100 µL TRB. Supernatants were boiled in Laemmli (BioRad) for 5 min. Pellets were boiled for 15 min followed by sonication in order to fully disperse aggregates for SDS-PAGE. Equal volumes of supernatant and pellet fractions were run on 4–12% Bolt Bis-Tris Plus gels (ThermoFisher), transferred to nitrocellulose membrane using an iBlot2 dry blotting system (ThermoFisher). Protein loading was analyzed by BLOT-Faststain (G-biosciences, St. Louis, MO), according to the manufacterers’ instructions. For immunodetection, membranes were blocked with 5% non-fat milk in TBST and probed by sequential incubation with the primary antibodies as detailed in the table below. Detection was by HRP-conjugated secondary antibodies/chemiluminescence using an ImageQuant LAS 4000 system (GE, Chicago, IL). To permit sequential probing of membranes without stripping, signals were quenched by incubation with prewarmed 30% H20_2 for 20 min ([Sennepin et al., 2009]). Band intensities were measured by ImageQuant software. For pellet vs. supernatant fractions, all were expressed as percent untreated control. For blots in Figure 1E, samples were run on 4–20% SDS PAGE minigels (ThermoFisher) and blotted to PVDF membranes (Immun-Blot PVDF, Bio-Rad) using the Bio-Rad TransBlot Turbo apparatus, and probed as above. The chemiluminescence signal was captured with a Bio-Rad ChemiDoc XRS+ digital imaging system.

Nup62 = test: DPR aggregation assay and western blot, Nup62; format: biochemical, human; details: 100 µM 10mer in 2.5 mg/ml HEK lysate, normalized to untreated HEK
Method: as §3

Nup54 = test: DPR aggregation assay and western blot, Nup54; format: biochemical, human; details: 100 µM 10mer in 2.5 mg/ml HEK lysate; Blot 1; normalized to untreated HEK
Method: as §3, with “For blots in Figure 1E, samples were run on 4–20% SDS PAGE minigels (ThermoFisher) and blotted to PVDF membranes (Immun-Blot PVDF, Bio-Rad) using the Bio-Rad TransBlot Turbo apparatus, and probed as above. The chemiluminescence signal was captured with a Bio-Rad ChemiDoc XRS+ digital imaging system.” left out

FUS = test: DPR aggregation assay and western blot, FUS; format: biochemical, human; details: normalized to untreated HEK cells on the same membrane
Method: as §3

Matrin-3 = test: DPR aggregation assay and western blot, Matrin-3; format: biochemical, human; details: normalized to untreated HEK cells on the same membrane
Method: as §3

hnRNPA1 = test: DPR aggregation assay and western blot, hnRNPA1; format: biochemical, human; details: normalized to untreated HEK cells on the same membrane
Method: as §3

hnRNPA2/B1 = test: DPR aggregation assay and western blot, hnRNPA2/B1; format: biochemical, human; details: normalized to untreated HEK cells on the same membrane
Method: as §3

DDX3X = test: DPR aggregation assay and western blot, DDX3X; format: biochemical, human; details: normalized to untreated HEK cells on the same membrane
Method: as §3

[2] = target: importin β-mediated nuclear import of Rango (Homo sapiens, UniProt Q14974); test: Permeabilized cell nuclear import assay, Rango, HeLa; format: cell-based
Sequence of importin β-mediated nuclear import of Rango (Q14974 whole entry): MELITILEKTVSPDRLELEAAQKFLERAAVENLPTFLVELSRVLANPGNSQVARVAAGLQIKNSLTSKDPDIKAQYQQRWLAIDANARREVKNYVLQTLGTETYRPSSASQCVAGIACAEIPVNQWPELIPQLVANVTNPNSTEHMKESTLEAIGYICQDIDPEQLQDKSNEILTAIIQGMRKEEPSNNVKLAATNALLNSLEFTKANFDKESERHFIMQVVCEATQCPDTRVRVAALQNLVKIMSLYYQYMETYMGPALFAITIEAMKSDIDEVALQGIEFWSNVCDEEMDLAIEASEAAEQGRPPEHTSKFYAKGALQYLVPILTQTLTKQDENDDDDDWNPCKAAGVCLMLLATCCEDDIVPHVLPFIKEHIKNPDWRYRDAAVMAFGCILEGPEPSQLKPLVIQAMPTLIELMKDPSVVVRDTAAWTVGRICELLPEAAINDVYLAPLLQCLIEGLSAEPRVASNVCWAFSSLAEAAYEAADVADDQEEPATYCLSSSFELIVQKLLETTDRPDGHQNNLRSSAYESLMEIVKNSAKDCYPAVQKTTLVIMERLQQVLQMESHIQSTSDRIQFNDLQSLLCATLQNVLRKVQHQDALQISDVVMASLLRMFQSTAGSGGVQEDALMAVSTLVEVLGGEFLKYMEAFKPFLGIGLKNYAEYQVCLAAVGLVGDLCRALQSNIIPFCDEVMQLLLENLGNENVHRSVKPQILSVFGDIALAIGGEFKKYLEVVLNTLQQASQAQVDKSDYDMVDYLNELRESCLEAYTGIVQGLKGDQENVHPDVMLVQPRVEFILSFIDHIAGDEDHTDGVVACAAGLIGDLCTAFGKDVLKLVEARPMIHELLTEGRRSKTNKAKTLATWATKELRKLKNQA

## N=C(N)NCCC[C@H](NC(=O)[C@@H]1CCCN1C(=O)[C@H](CCCNC(=N)N)NC(=O)[C@@H]1CCCN1C(=O)[C@H](CCCNC(=N)N)NC(=O)[C@@H]1CCCN1C(=O)[C@H](CCCNC(=N)N)NC(=O)[C@@H]1CCCN1C(=O)[C@H](CCCNC(=N)N)NC(=O)[C@@H]1CCCN1C(=O)[C@H](CCCNC(=N)N)NC(=O)[C@@H]1CCCN1C(=O)[C@H](CCCNC(=N)N)NC(=O)[C@@H]1CCCN1C(=O)[C@H](CCCNC(=N)N)NC(=O)[C@@H]1CCCN1C(=O)[C@H](CCCNC(=N)N)NC(=O)[C@@H]1CCCN1C(=O)[C@H](CCCNC(=N)N)NC(=O)[C@@H]1CCCN1)C(=O)O [PR10] (H-PRPRPRPRPRPRPRPRPRPR-OH; N-terminus and C-terminus assumed)
[1]
  Binding to bare beads: modest non-specific binding
Nup100(1-307); binding buffer
  Binding to Nup100 GLFG-domain (halo intensity): modest selective binding
Nup100(1-307); + unlabeled importin β
  FG-binding with added unlabeled importin β: FG-binding could be augmented
Nup100(1-610); binding buffer
  Binding to Nup100 GLFG-domain (halo intensity): modest selective binding
Nup100(1-610); + unlabeled importin β
  FG-binding with added unlabeled importin β: FG-binding could be augmented
Nup133; Blot 1
  Nup133 band density, Pellet: 156.5 % control
  Nup133 band density, Supernatant: 45.6 % control
Nup133; Blot 2
  Nup133 band density, Pellet: 194.3 % control
  Nup133 band density, Supernatant: 40.2 % control
Nup62; Blot 1
  Nup62 band density, Pellet: 204.0 % control
  Nup62 band density, Supernatant: 154.3 % control
Nup62; Blot 2
  Nup62 band density, Pellet: 227.1 % control
  Nup62 band density, Supernatant: 111.0 % control
Nup54
  Nup54 band density, Pellet: 143.4 % control
  Nup54 band density, Supernatant: 96.8 % control
FUS; Pellet, Blot 1
  FUS band density, % control: 65.8 % control
FUS; Pellet, Blot 2
  FUS band density, % control: 35.2 % control
FUS; Supernatant, Blot 1
  FUS band density, % control: 99.5 % control
FUS; Supernatant, Blot 2
  FUS band density, % control: 123.2 % control
Matrin-3; Pellet, Blot 1
  Matrin-3 band density, % control: 407.8 % control
Matrin-3; Pellet, Blot 2
  Matrin-3 band density, % control: 159.1 % control
Matrin-3; Supernatant, Blot 1
  Matrin-3 band density, % control: 25.9 % control
Matrin-3; Supernatant, Blot 2
  Matrin-3 band density, % control: 42.9 % control
hnRNPA1; Pellet, Blot 1
  hnRNPA1 band density, % control: 165.2 % control
hnRNPA1; Pellet, Blot 2
  hnRNPA1 band density, % control: 367.1 % control
hnRNPA1; Supernatant, Blot 1
  hnRNPA1 band density, % control: 61.7 % control
hnRNPA1; Supernatant, Blot 2
  hnRNPA1 band density, % control: 58.6 % control
hnRNPA2/B1; Pellet, Blot 1
  hnRNPA2/B1 band density, % control: 426.4 % control
hnRNPA2/B1; Pellet, Blot 2
  hnRNPA2/B1 band density, % control: 309.1 % control
hnRNPA2/B1; Supernatant, Blot 1
  hnRNPA2/B1 band density, % control: 53.5 % control
hnRNPA2/B1; Supernatant, Blot 2
  hnRNPA2/B1 band density, % control: 56.7 % control
DDX3X; Pellet, Blot 1
  DDX3X band density, % control: 156.6 % control
DDX3X; Pellet, Blot 2
  DDX3X band density, % control: 221.4 % control
DDX3X; Supernatant, Blot 1
  DDX3X band density, % control: 10.9 % control
DDX3X; Supernatant, Blot 2
  DDX3X band density, % control: 1.8 % control

## GA10: Synthetic 10-mer GA dipeptide repeat with C-terminal lysine and cysteine (GAGAGAGAGAGAGAGAGAGAKC)
[2]
  NCT inhibition in permeabilized HeLa: did not see NCT inhibition
